pEC50, pIC50: −log10 of the molar value. Where two headings read alike, the source gives them in different places.
How the values were obtained:
[1] = test system: HBV strain WT; assay: HBV DR Assay, strain WT; format: cell-based
[2] = test system: HCV RNA replicon; assay: HCV RNA replicon assay; format: cell-based, hepatitis C virus (HCV); conditions: for Activity (% inhibition virus control) / outcome of primary test: primary, single-dilution test; for pEC50: Hepatitis C virus
Description: A number of […] 7-deazaneplanocin compounds were tested in vitro to determine activity against hepatitis C virus (HCV).

[3] = cytotoxicity in the HCV RNA replicon assay; conditions: for Cytotoxicity (% cell control): primary, single-dilution test
[4] = test system: Hepatitis B Virus; assay: in vitro anti-HBV activity, VIR (extracellular virion HBV DNA); format: cell-based; conditions: VIR: extracellular virion HBV DNA
Description: (§1) In the first biological experiment, a number of 7-deazaneplanocin compounds were tested in vitro to determine activity against hepatitis B virus (HBV).

[5] = toxicity (CC50) in the anti-HBV test; format: cell-based
[6] = test system: Cowpox; assay: microbe, parasite or virus in culture; format: cell-based, cowpox virus; conditions: Cowpox virus, HFF
[7] = test system: Vaccinia; assay: microbe, parasite or virus in culture; format: cell-based, vaccinia virus; conditions: Orthopoxvirus vaccinia, HFF
[8] = test system: Hepatitis B Virus; assay: in vitro anti-HBV activity, RI (intracellular HBV DNA replication intermediates); format: cell-based
Description: as §1

[9] = HT20, HT @ 20 μM, read-out: EC50

Nc1ccn([C@@H]2CS[C@H](CO)O2)c(=O)n1 [Compound 3TC]
pEC50 [1]: 6.70
EC90 [1]: 0.6 µM

Nc1nc2c(ccn2[C@@H]2C=C(CO)C(O)C2O)c(=O)[nH]1 (stereo partly drawn)
Activity (% inhibition virus control) [2]: 10.1%
outcome of primary test [2]: Inactive in primary, single-dilution test
Cytotoxicity (% cell control) [3]: 99.8%

Nc1ncnc2c1c(I)cn2[C@@H]1C=C(CO)C(O)C1O (stereo partly drawn)
pEC50 ([2]; HT @ 5 μM, read-out: EC50): 5.51
pEC50 ([2]; HT @ 100 μM, read-out: EC50): 5.67
Activity (% inhibition virus control) [2]: 89.7%
pIC50 ([3]; HT @ 5 μM): < 5.30
pIC50 ([3]; HT @ 100 μM): 4.83
Cytotoxicity (% cell control) [3]: 35.2%

Nc1ncnc2c1c([N+](=O)[O-])cn2[C@@H]1C=C(CO)[C@H](O)C1O (stereo partly drawn) [Compound 22, 7—Deaza-7-Nitro-Neplanocin A]
pEC50 ([4]; Hepatitis B virus): < 5.00
EC90 ([4]; Hepatitis B virus): > 10 µM
CC50 [5]: > 300 µM
melting point: 245 to 246 °C

Nc1ncnc2c1c(F)cn2[C@@H]1C=C(CO)C(O)C1O (stereo partly drawn)
Activity (% inhibition virus control) [2]: 9.5%
outcome of primary test [2]: Inactive in primary, single-dilution test
Cytotoxicity (% cell control) [3]: 112.7%

Nc1ncnc2c1c(Cl)cn2[C@@H]1C=C(CO)[C@@H](O)[C@H]1O [Compound 11, 7-Deaza-7-Chloro Neplanocin A]
pEC50 [4]: < 5.00
EC90 [4]: > 10 µM
CC50 [5]: > 300 µM

Nc1ccn(C[C@@H](CO)OCP(=O)(O)O)c(=O)n1 [Cidofovir, reference compound]
pEC50 [6]: 5.30
pEC50 [7]: 5.40

Nc1ncnc2c1c(Cl)cn2[C@@H]1C=C(CO)C(O)C1O (stereo partly drawn)
pEC50 ([2]; HT @ 100 μM): 4.83
Activity (% inhibition virus control) [2]: 70.6%
pIC50 ([3]; HT @ 100 μM): 4.30
Cytotoxicity (% cell control) [3]: 81.2%

CC(C)(C)C(=O)OCOP(=O)(COCCn1cnc2c(N)ncnc21)OCOC(=O)C(C)(C)C [ADV]
pEC50 [1]: 5.89
EC90 [1]: 6 µM

C#Cc1cn([C@@H]2C=C(CO)C(O)C2O)c2ncnc(N)c12 (stereo partly drawn) [drawing 37]
pEC50 [2, 9]: 4.91
pEC50 ([2]; HT @ 100 μM, read-out: EC50): 4.70
Activity (% inhibition virus control) [2]: 73.3%
pIC50 ([3]; HT20, HT @ 20 μM): < 4.70
pIC50 ([3]; HT @ 100 μM): 4.31
Cytotoxicity (% cell control) [3]: 86.6%

Nc1ncnc2c1c(I)cn2[C@@H]1C=C(CO)[C@@H](O)[C@H]1O [Compound 13, 7-Deaza-7-Iodo Neplanocin A]
pEC50 [4]: 6.37
EC90 [4]: 1.8 µM
pEC50 [8]: 5.80
EC90 [8]: 5.9 µM
CC50 [5]: > 300 µM

Nc1ncnc2c1c(Br)cn2[C@@H]1C=C(CO)[C@@H](O)[C@H]1O [Compound 12, 7-Deaza-7-Bromo Neplanocin A]
pEC50 [4]: < 5.00
EC90 [4]: > 10 µM
CC50 [5]: > 300 µM

Nc1ncnc2c1c(Br)cn2[C@@H]1C=C(CO)C(O)C1O (stereo partly drawn)
pEC50 [2, 9]: 4.98
pEC50 ([2]; HT @ 100 μM, read-out: EC50): 4.78
Activity (% inhibition virus control) [2]: 80.9%
pIC50 ([3]; HT20, HT @ 20 μM): < 4.70
pIC50 ([3]; HT @ 100 μM): 4.38
Cytotoxicity (% cell control) [3]: 76.3%

N#Cc1cn([C@@H]2C=C(CO)C(O)C2O)c2ncnc(N)c12 (stereo partly drawn)
Activity (% inhibition virus control) [2]: 0.5%
outcome of primary test [2]: Inactive in primary, single-dilution test
Cytotoxicity (% cell control) [3]: 103.3%

Nc1ncnc2c1c(F)cn2[C@@H]1C=C(CO)[C@@H](O)[C@H]1O [Compound 10]
pEC50 [4]: < 5.00
EC90 [4]: > 10 µM
CC50 [5]: > 300 µM

N#Cc1cn([C@@H]2C=C(CO)[C@@H](O)[C@H]2O)c2ncnc(N)c12 [Compound 17, 7-Deaza-7-Cyano-Neplanocin A]
pEC50 [4]: < 5.00
EC90 [4]: > 10 µM
CC50 [5]: > 300 µM

NC(=O)c1cn([C@@H]2C=C(CO)[C@@H](O)[C@H]2O)c2ncnc(N)c12 [Compound 18, 7-Deaza-7-Amido-Neplanocin A]
pEC50 [4]: < 5.00
EC90 [4]: > 10 µM
CC50 [5]: > 300 µM

C=Cc1cn([C@@H]2C=C(CO)C(O)C2O)c2ncnc(N)c12 (stereo partly drawn)
Activity (% inhibition virus control) [2]: 49.2%
Cytotoxicity (% cell control) [3]: 99.7%

Nc1ncnc2c1c([N+](=O)[O-])cn2[C@@H]1C=C(CO)C(O)C1O (stereo partly drawn)
Activity (% inhibition virus control) [2]: 31.5%
Cytotoxicity (% cell control) [3]: 101.5%

NC(=O)c1cn([C@@H]2C=C(CO)C(O)C2O)c2ncnc(N)c12 (stereo partly drawn)
pEC50 ([2]; HT not given, read-out: EC50): 5.73
Activity (% inhibition virus control) [2]: 93.5%
pIC50 ([3]; HT not given): 4.93
Cytotoxicity (% cell control) [3]: 44.2%

Reference: patent publication US20090270431A1, “Cyclopentenol Nucleoside Compounds Intermediates for their Synthesis and Methods of Treating Viral Infections” (THE UNIVERSITY OF GEORGIA RESEARCH FOUNDATION, priority 2005, published 2009)
